Common to all, as to assay: cAMP functional assay (HTRF) in HEK293 cells in presence of 0.1% casein
Holding throughout (assay type): cell-based
In general terms: In TR-FRET formats the signal depends on donor and acceptor labels being close together.

Experiment [1] deals with T1, human glucagon receptor (GcgR) (Homo sapiens, UniProt P47871).
T1 construct: expressed in transfected cells; host or cells: HEK293
As to conditions: HEK293 cells expressing human GcgR, geometric mean, read-out: hGcgR cAMP Rel EC50 nM (SEM, n).

Experiment [2] deals with T2, human GLP-1 receptor (GLP-1R) (Homo sapiens, UniProt P43220).
T2 construct: expressed in transfected cells; host or cells: HEK293
As to conditions: HEK293 cells expressing human GLP-1R, geometric mean, read-out: hGLP1R cAMP Rel EC50 nM (SEM, n).

Experiment [3] has as its target T3, human glucose-dependent insulinotropic peptide receptor (GIPR) (Homo sapiens, UniProt P48546).
T3 construct: expressed in transfected cells; host or cells: HEK293
T3 sequence (P48546 22-466): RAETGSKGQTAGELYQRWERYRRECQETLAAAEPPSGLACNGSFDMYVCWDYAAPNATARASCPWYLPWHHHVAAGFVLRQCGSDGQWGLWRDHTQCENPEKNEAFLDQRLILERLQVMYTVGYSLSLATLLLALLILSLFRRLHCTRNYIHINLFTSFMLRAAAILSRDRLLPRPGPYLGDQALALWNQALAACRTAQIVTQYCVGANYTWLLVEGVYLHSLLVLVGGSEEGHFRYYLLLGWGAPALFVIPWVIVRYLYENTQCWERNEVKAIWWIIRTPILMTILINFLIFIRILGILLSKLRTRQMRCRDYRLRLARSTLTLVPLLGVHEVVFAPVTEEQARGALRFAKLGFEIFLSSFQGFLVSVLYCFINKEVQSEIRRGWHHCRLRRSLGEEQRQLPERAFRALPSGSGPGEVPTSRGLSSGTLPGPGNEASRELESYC
The following applies: HEK293 cells expressing human GIPR, geometric mean, read-out: hGIPR cAMP Rel EC50 nM (SEM, n).

*1 amine or outer side, *2 acyl side, *3 side chain or, on linkers, in order; H or OH if unused. Where a SMILES comes first, the peptide text is derived from it. Side-chain parts run from the residue outwards. [ ]: non-standard residue; d: D form. The star is where a group is joined. C20 diacid = O=C(O)CCCCCCCCCCCCCCCCCCC(=O)*; αMePhe(2-F) = C[C@](N)(Cc1ccccc1F)C(=O)O; γGlu = O=C(O)[C@H](CCC(=O)[*:2])N[*:1]; αMeF = C[C@](N)(Cc1ccccc1)C(=O)O; 4Pal = N[C@@H](Cc1ccncc1)C(=O)O; αMeL = CC(C)C[C@](C)(N)C(=O)O; Iva = CC[C@](C)(N)C(=O)O; AEEA = NCCOCCOCC(=O)O; Aib = CC(C)(N)C(=O)O Bounds are passed on as bounds.

T1 sequence (P47871 26-477): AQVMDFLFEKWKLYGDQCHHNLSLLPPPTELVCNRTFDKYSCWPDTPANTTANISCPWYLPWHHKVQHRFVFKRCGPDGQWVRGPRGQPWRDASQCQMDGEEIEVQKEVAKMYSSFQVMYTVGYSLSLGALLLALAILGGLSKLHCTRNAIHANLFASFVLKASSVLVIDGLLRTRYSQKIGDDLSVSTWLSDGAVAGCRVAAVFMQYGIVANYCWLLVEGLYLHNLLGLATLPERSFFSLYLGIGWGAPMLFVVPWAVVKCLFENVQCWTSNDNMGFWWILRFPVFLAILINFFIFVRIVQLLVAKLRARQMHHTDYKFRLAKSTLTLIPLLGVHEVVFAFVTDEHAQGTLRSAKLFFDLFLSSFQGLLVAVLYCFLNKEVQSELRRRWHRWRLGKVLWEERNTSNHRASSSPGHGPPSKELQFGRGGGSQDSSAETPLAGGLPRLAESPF
T2 sequence (P43220 24-463): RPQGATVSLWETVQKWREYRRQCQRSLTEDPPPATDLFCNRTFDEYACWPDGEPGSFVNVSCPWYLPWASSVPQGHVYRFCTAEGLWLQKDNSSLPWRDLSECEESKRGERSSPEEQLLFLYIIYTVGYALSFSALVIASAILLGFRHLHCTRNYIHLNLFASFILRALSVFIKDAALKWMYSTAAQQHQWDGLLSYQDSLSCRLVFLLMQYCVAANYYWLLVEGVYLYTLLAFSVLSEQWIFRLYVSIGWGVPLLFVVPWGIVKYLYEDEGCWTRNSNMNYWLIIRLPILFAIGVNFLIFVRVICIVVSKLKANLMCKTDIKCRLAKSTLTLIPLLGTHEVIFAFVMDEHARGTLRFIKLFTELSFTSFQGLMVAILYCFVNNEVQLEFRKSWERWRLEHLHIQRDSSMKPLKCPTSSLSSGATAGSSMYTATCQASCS

With `CC[C@H](C)[C@H](NC(=O)[C@H](CO)NC(=O)[C@H](Cc1ccc(O)cc1)NC(=O)[C@H](CC(=O)O)NC(=O)[C@H](CO)NC(=O)[C@@H](NC(=O)[C@](C)(Cc1ccccc1)NC(=O)[C@@H](NC(=O)CNC(=O)[C@H](CCC(=O)O)NC(=O)C(C)(C)NC(=O)[C@@H](N)Cc1ccc(O)cc1)[C@@H](C)O)[C@@H](C)CC)C(=O)N[C@@](C)(CC(C)C)C(=O)N[C@@H](CC(C)C)C(=O)N[C@@H](CC(=O)O)C(=O)N[C@@H](CCCCN)C(=O)N[C@@H](CCCCNC(=O)COCCOCCNC(=O)COCCOCCNC(=O)CC[C@H](NC(=O)CCCCCCCCCCCCCCCCCCC(=O)O)C(=O)O)C(=O)N[C@@H](Cc1c[nH]cn1)C(=O)N[C@@H](CCC(N)=O)C(=O)NC(C)(C)C(=O)N[C@@H](CCC(=O)O)C(=O)N[C@@H](Cc1ccccc1)C(=O)N[C@H](C(=O)N[C@@H](CCC(=O)O)C(=O)N[C@@H](Cc1ccncc1)C(=O)N[C@@H](CC(C)C)C(=O)N[C@@H](CC(C)C)C(=O)N[C@@H](C)C(=O)N[C@@H](C)C(=O)NCC(=O)N1CCC[C@H]1C(=O)N[C@@H](CO)C(=O)N[C@@H](CO)C(=O)NCC(=O)N[C@@H](C)C(=O)N1CCC[C@H]1C(=O)N1CCC[C@H]1C(=O)N1CCC[C@H]1C(=O)N[C@@H](CO)C(N)=O)C(C)C` [Example 62] (H-Y[Aib]EGT[αMeF]ISDYSI[αMeL]LDKK([AEEA-AEEA-γGlu-C20 diacid])HQ[Aib]EFVE[4Pal]LLAAGPSSGAPPPS-NH2), the EC50 in experiment [1] is above 5000 nM; in experiment [2], 58.2 nM; in experiment [3] it was 0.0116 nM.

With `CC[C@H](C)[C@H](NC(=O)[C@H](Cc1ccccc1)NC(=O)[C@@H](NC(=O)CNC(=O)[C@H](CCC(=O)O)NC(=O)C(C)(C)NC(=O)[C@@H](N)Cc1ccc(O)cc1)[C@@H](C)O)C(=O)N[C@@H](CO)C(=O)N[C@@H](CC(=O)O)C(=O)N[C@@H](Cc1ccc(O)cc1)C(=O)N[C@@H](CO)C(=O)N[C@H](C(=O)N[C@@](C)(CC(C)C)C(=O)N[C@@H](CC(C)C)C(=O)N[C@@H](CC(=O)O)C(=O)N[C@@H](CCCCN)C(=O)N[C@@H](CCCCNC(=O)COCCOCCNC(=O)COCCOCCNC(=O)CC[C@H](NC(=O)CCCCCCCCCCCCCCCCCCC(=O)O)C(=O)O)C(=O)N[C@@H](Cc1c[nH]cn1)C(=O)N[C@@H](CCC(N)=O)C(=O)NC(C)(C)C(=O)N[C@@H](CCC(=O)O)C(=O)N[C@@H](Cc1ccccc1)C(=O)N[C@H](C(=O)N[C@@H](CCC(=O)O)C(=O)N[C@@H](Cc1ccncc1)C(=O)N[C@@H](CC(C)C)C(=O)N[C@@H](CC(C)C)C(=O)N[C@@H](C)C(=O)N[C@H](C(=O)NCC(=O)N1CCC[C@H]1C(=O)N[C@@H](CO)C(=O)N[C@@H](CO)C(=O)NCC(=O)N[C@@H](C)C(=O)N1CCC[C@H]1C(=O)N1CCC[C@H]1C(=O)N1CCC[C@H]1C(=O)N[C@@H](CO)C(N)=O)[C@@H](C)O)C(C)C)[C@@H](C)CC` [Example 58] (H-Y[Aib]EGTFISDYSI[αMeL]LDKK([AEEA-AEEA-γGlu-C20 diacid])HQ[Aib]EFVE[4Pal]LLATGPSSGAPPPS-NH2), the EC50 was above 5000 nM in experiment [1], above 5000 nM in experiment [2] and 0.0183 nM in experiment [3].

With `CC[C@H](C)[C@H](NC(=O)[C@H](Cc1ccccc1)NC(=O)[C@@H](NC(=O)CNC(=O)[C@H](CCC(=O)O)NC(=O)C(C)(C)NC(=O)[C@@H](N)Cc1ccc(O)cc1)[C@@H](C)O)C(=O)N[C@@H](CO)C(=O)N[C@@H](CC(=O)O)C(=O)N[C@@H](Cc1ccc(O)cc1)C(=O)N[C@@H](CO)C(=O)N[C@H](C(=O)N[C@@](C)(CC(C)C)C(=O)N[C@@H](CC(C)C)C(=O)N[C@@H](CC(=O)O)C(=O)N[C@@H](CCCCN)C(=O)N[C@@H](CCCCNC(=O)COCCOCCNC(=O)COCCOCCNC(=O)CC[C@H](NC(=O)CCCCCCCCCCCCCCCCCCC(=O)O)C(=O)O)C(=O)N[C@@H](Cc1c[nH]cn1)C(=O)N[C@@H](CCC(N)=O)C(=O)NC(C)(C)C(=O)N[C@@H](CC(=O)O)C(=O)N[C@@H](Cc1ccccc1)C(=O)N[C@H](C(=O)N[C@@H](CCC(=O)O)C(=O)N[C@@H](Cc1ccc(O)cc1)C(=O)N[C@@H](CC(C)C)C(=O)N[C@@H](CC(C)C)C(=O)N[C@@H](CCC(=O)O)C(=O)N[C@H](C(=O)NCC(=O)N1CCC[C@H]1C(=O)N[C@@H](CO)C(=O)N[C@@H](CO)C(=O)NCC(=O)N[C@@H](C)C(=O)N1CCC[C@H]1C(=O)N1CCC[C@H]1C(=O)N1CCC[C@H]1C(=O)N[C@@H](CO)C(N)=O)[C@@H](C)O)C(C)C)[C@@H](C)CC` [Example 66] (H-Y[Aib]EGTFISDYSI[αMeL]LDKK([AEEA-AEEA-γGlu-C20 diacid])HQ[Aib]DFVEYLLETGPSSGAPPPS-NH2), the values for the EC50 in experiment [1], in experiment [2] and in experiment [3] were above 5000 nM, above 5000 nM and 0.0786 nM, respectively.

As for `CC[C@H](C)[C@H](NC(=O)[C@H](CO)NC(=O)[C@H](Cc1ccc(O)cc1)NC(=O)[C@H](CC(=O)O)NC(=O)[C@H](CO)NC(=O)[C@@H](NC(=O)[C@](C)(Cc1ccccc1F)NC(=O)[C@@H](NC(=O)CNC(=O)[C@H](CCC(=O)O)NC(=O)C(C)(C)NC(=O)[C@@H](N)Cc1ccc(O)cc1)[C@@H](C)O)[C@@H](C)CC)C(=O)N[C@@H](C)C(=O)N[C@@H](CC(C)C)C(=O)N[C@@H](CC(=O)O)C(=O)N[C@@H](CCCCN)C(=O)N[C@@H](CCCCNC(=O)COCCOCCNC(=O)COCCOCCNC(=O)CC[C@H](NC(=O)CCCCCCCCCCCCCCCCCCC(=O)O)C(=O)O)C(=O)N[C@@H](Cc1c[nH]cn1)C(=O)N[C@@H](CCC(N)=O)C(=O)NC(C)(C)C(=O)N[C@@H](CC(=O)O)C(=O)N[C@@H](Cc1ccccc1)C(=O)N[C@H](C(=O)N[C@@H](CCC(=O)O)C(=O)N[C@@H](Cc1ccncc1)C(=O)N[C@@H](CC(C)C)C(=O)N[C@@H](CC(C)C)C(=O)N[C@@H](CCC(=O)O)C(=O)N[C@H](C(=O)NCC(=O)N1CCC[C@H]1C(=O)N[C@@H](CO)C(=O)N[C@@H](CO)C(=O)NCC(=O)N[C@@H](C)C(=O)N1CCC[C@H]1C(=O)N1CCC[C@H]1C(=O)N1CCC[C@H]1C(=O)N[C@@H](CO)C(N)=O)[C@@H](C)O)C(C)C` [Example 38] (H-Y[Aib]EGT[αMePhe(2-F)]ISDYSIALDKK([AEEA-AEEA-γGlu-C20 diacid])HQ[Aib]DFVE[4Pal]LLETGPSSGAPPPS-NH2), the EC50 in experiment [1] is above 5000 nM; in experiment [2] it was 1390 nM; in experiment [3], 0.0368 nM.

Consider `CC[C@H](C)[C@H](NC(=O)[C@H](Cc1ccccc1)NC(=O)[C@@H](NC(=O)CNC(=O)[C@H](CCC(=O)O)NC(=O)C(C)(C)NC(=O)[C@@H](N)Cc1ccc(O)cc1)[C@@H](C)O)C(=O)N[C@@H](CO)C(=O)N[C@@H](CC(=O)O)C(=O)N[C@@H](Cc1ccc(O)cc1)C(=O)N[C@@H](CO)C(=O)N[C@H](C(=O)N[C@@](C)(CC(C)C)C(=O)N[C@@H](CC(C)C)C(=O)N[C@@H](CC(=O)O)C(=O)N[C@@H](CCCCN)C(=O)N[C@@H](CCCCNC(=O)COCCOCCNC(=O)COCCOCCNC(=O)CC[C@H](NC(=O)CCCCCCCCCCCCCCCCCCC(=O)O)C(=O)O)C(=O)N[C@@H](Cc1c[nH]cn1)C(=O)N[C@@H](CCC(N)=O)C(=O)NC(C)(C)C(=O)N[C@@H](CCC(=O)O)C(=O)N[C@@H](Cc1ccccc1)C(=O)N[C@H](C(=O)N[C@@H](CCC(=O)O)C(=O)N[C@@H](Cc1ccc(O)cc1)C(=O)N[C@@H](CC(C)C)C(=O)N[C@@H](CC(C)C)C(=O)N[C@@H](CCC(=O)O)C(=O)N[C@H](C(=O)NCC(=O)N1CCC[C@H]1C(=O)N[C@@H](CO)C(=O)N[C@@H](CO)C(=O)NCC(=O)N[C@@H](C)C(=O)N1CCC[C@H]1C(=O)N1CCC[C@H]1C(=O)N1CCC[C@H]1C(=O)N[C@@H](CO)C(N)=O)[C@@H](C)O)C(C)C)[C@@H](C)CC` [Example 64] (H-Y[Aib]EGTFISDYSI[αMeL]LDKK([AEEA-AEEA-γGlu-C20 diacid])HQ[Aib]EFVEYLLETGPSSGAPPPS-NH2), for which the EC50 is 3070 nM in experiment [1], above 5000 nM in experiment [2] and 0.0448 nM in experiment [3].

As for `CC[C@H](C)[C@H](NC(=O)[C@H](CO)NC(=O)[C@H](Cc1ccc(O)cc1)NC(=O)[C@H](CC(=O)O)NC(=O)[C@H](CO)NC(=O)[C@@H](NC(=O)[C@](C)(CC)NC(=O)[C@@H](NC(=O)CNC(=O)[C@H](CCC(=O)O)NC(=O)C(C)(C)NC(=O)[C@@H](N)Cc1ccc(O)cc1)[C@@H](C)O)[C@@H](C)CC)C(=O)N[C@@](C)(CC(C)C)C(=O)N[C@@H](CC(C)C)C(=O)N[C@@H](CC(=O)O)C(=O)N[C@@H](CCCCN)C(=O)N[C@@H](CCCCNC(=O)COCCOCCNC(=O)COCCOCCNC(=O)CC[C@H](NC(=O)CCCCCCCCCCCCCCCCCCC(=O)O)C(=O)O)C(=O)N[C@@H](Cc1c[nH]cn1)C(=O)N[C@@H](CCC(N)=O)C(=O)NC(C)(C)C(=O)N[C@@H](CC(=O)O)C(=O)N[C@@H](Cc1ccccc1)C(=O)N[C@H](C(=O)N[C@@H](CCC(=O)O)C(=O)N[C@@H](Cc1ccncc1)C(=O)N[C@@H](CC(C)C)C(=O)N[C@@H](CC(C)C)C(=O)N[C@@H](C)C(=O)NCC(=O)NCC(=O)N1CCC[C@H]1C(=O)N[C@@H](CO)C(=O)N[C@@H](CO)C(=O)NCC(=O)N[C@@H](C)C(=O)N1CCC[C@H]1C(=O)N1CCC[C@H]1C(=O)N1CCC[C@H]1C(=O)N[C@@H](CO)C(N)=O)C(C)C` [Example 55] (H-Y[Aib]EGT[Iva]ISDYSI[αMeL]LDKK([AEEA-AEEA-γGlu-C20 diacid])HQ[Aib]DFVE[4Pal]LLAGGPSSGAPPPS-NH2), the EC50 in experiment [1] was above 5000 nM; in experiment [2], above 5000 nM; in experiment [3], 0.017 nM.

Broadly, the EC50 is the concentration that produces a half-maximal response.

The values are drawn from patent US12723063B2, “GIPR-agonist compounds” (Eli Lilly and Company, priority 2019, dated 2026).
